ChEMBL document CHEMBL4411323 (Bioorg Med Chem, 2019)
pIC50: −log10 of the molar value.

Target: Serine/threonine-protein kinase B-raf (Homo sapiens, UniProt P15056, V600E)
Assay: Inhibition of human BRAF V600E mutant using myelin basic protein as substrate measured after 40 mins in presence of [gamma33P-ATP] by scintillation counting method

Chain of Serine/threonine-protein kinase B-raf (P15056 2-766 V600E limits assumed): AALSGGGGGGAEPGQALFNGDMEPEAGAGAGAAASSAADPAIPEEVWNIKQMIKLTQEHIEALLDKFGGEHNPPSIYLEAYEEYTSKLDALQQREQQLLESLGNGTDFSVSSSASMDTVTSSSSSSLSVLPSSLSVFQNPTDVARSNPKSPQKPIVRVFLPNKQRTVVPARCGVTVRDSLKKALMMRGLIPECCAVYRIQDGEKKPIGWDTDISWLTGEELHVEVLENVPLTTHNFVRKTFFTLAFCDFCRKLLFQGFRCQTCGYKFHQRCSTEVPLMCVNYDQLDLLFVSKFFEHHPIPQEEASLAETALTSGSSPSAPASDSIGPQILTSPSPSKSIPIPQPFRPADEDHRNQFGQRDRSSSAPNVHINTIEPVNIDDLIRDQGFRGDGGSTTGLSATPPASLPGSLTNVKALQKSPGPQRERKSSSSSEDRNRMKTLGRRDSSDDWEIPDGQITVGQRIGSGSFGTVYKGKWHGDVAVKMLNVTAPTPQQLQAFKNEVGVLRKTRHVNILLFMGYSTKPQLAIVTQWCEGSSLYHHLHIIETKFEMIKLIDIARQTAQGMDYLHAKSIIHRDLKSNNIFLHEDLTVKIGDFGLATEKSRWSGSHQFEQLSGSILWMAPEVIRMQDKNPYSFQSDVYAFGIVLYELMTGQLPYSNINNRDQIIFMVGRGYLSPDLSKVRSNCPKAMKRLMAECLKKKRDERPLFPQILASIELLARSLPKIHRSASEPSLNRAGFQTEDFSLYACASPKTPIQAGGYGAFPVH

Row | Compound | pIC50
1 | O=C(Nc1cccc(-n2cc(-c3ccncc3)c(-c3cc(O)cc(Cl)c3)n2)c1)Nc1ccc(Cl)c(C(F)(F)F)c1 | 8.15
2 | COc1cc(Cl)cc(-c2nn(-c3cccc(NC(=O)c4cc(C(F)(F)F)cc(C(F)(F)F)c4)c3)cc2-c2ccncc2)c1 | 5.13
3 | COc1cc(Cl)cc(-c2nn(-c3cccc(NC(=O)Nc4ccc(Cl)c(C(F)(F)F)c4)c3)cc2-c2ccncc2)c1 | 6.72
4 | O=C(Nc1cccc(-n2cc(-c3ccncc3)c(-c3cc(O)cc(Cl)c3)n2)c1)c1cc(C(F)(F)F)cc(C(F)(F)F)c1 | 6.67
5 | O=C(Nc1cccc(-n2cc(-c3ccncc3)c(-c3cc(O)cc(Cl)c3)n2)c1)c1ccc(N2CCOCC2)c(C(F)(F)F)c1 | 7.85
6 | COc1cc(Cl)cc(-c2nn(-c3cccc(NC(=O)Nc4cccc(C(F)(F)F)c4)c3)cc2-c2ccncc2)c1 | 6.32
7 | O=C(Nc1cccc(-n2cc(-c3ccncc3)c(-c3cc(O)cc(Cl)c3)n2)c1)Nc1cc(C(F)(F)F)cc(C(F)(F)F)c1 | 5.67
8 | COc1cc(Cl)cc(-c2nn(-c3cccc(NC(=O)c4ccc(N5CCOCC5)c(C(F)(F)F)c4)c3)cc2-c2ccncc2)c1 | 6.46
9 | COc1cc(Cl)cc(-c2nn(-c3cccc(NC(=O)Nc4ccc(Cl)c(Cl)c4)c3)cc2-c2ccncc2)c1 | 6.60

Now from value to molecule:

Row | pIC50 | Compound
10 | 4.06 | COc1cc(Cl)cc(-c2nn(-c3cccc(NC(=O)c4ccc(Cl)c(Cl)c4)c3)cc2-c2ccncc2)c1
11 | 6.04 | O=C(Nc1ccccc1)Nc1cccc(-n2cc(-c3ccncc3)c(-c3cc(O)cc(Cl)c3)n2)c1
12 | 7.35 | O=C(Nc1cccc(-n2cc(-c3ccncc3)c(-c3cc(O)cc(Cl)c3)n2)c1)Nc1ccc(Cl)c(Cl)c1
13 | 7.52 | O=C(Nc1cccc(-n2cc(-c3ccncc3)c(-c3cc(O)cc(Cl)c3)n2)c1)Nc1cccc(C(F)(F)F)c1
14 | 6.80 | COc1cc(Cl)cc(-c2nn(-c3cccc(NC(=O)c4cccc(C(F)(F)F)c4)c3)cc2-c2ccncc2)c1
15 | 5.43 | COc1cc(Cl)cc(-c2nn(-c3cccc(NC(=O)c4ccccc4)c3)cc2-c2ccncc2)c1
16 | 7.42 | O=C(Nc1cccc(-n2cc(-c3ccncc3)c(-c3cc(O)cc(Cl)c3)n2)c1)c1cccc(C(F)(F)F)c1
17 | 7.59 | O=C(Nc1cccc(-n2cc(-c3ccncc3)c(-c3cc(O)cc(Cl)c3)n2)c1)c1ccccc1
18 | 7.33 | O=C(Nc1cccc(-n2cc(-c3ccncc3)c(-c3cc(O)cc(Cl)c3)n2)c1)c1ccc(Cl)c(Cl)c1
19 | 6.31 | COc1cc(Cl)cc(-c2nn(-c3cccc(NC(=O)Nc4ccccc4)c3)cc2-c2ccncc2)c1
